Experimental data taken from US20170105981A1, “METHODS FOR STABILIZING HYPOXIA INDUCIBLE FACTOR-2 ALPHA AS A METHOD FOR TREATING CANCER” (The Ohio State Innovation Foundation, priority 2011, published 2017).

Tested on: A2780/CP tumor cells
Assay: A2780/CP ovarian tumor xenograft model
Type: in vivo, female athymic nude mice
Procedure: The compound tested, {[5-(3-fluorophenyl)-3-hydroxypyridine-2-carbonyl]-amino} acetic acid, was formulated in a 0.25% hydroxypropyl methyl cellulose/0.1% Tween™ 80 solution in reverse osmosis deionized water. The test compound was reconstituted at concentrations of 1.8 and 3.6 mg/ml as instructed on each vial to deliver doses of 18 and 36 mg/kg, respectively, at a […] dose volume. Solutions of the test compound were prepared weekly and stored at 4° C. protected from light. All formulations were removed from the refrigerator and stirred for 30 minutes before dosing, and continuously stirred during dosing.
The vehicle control was prepared by making a solution of 0.25% hydroxypropyl methyl cellulose/0.1% Tween™ 80 solution in reverse osmosis deionized water.
A2780/CP ovarian tumor cell line was received from Sigma-Aldrich (St. Louis, Mo.). Cultures were maintained in RPMI 1640 (Hyclone, Logan, Utah), supplemented with 10% fetal bovine serum, and housed in a 5% CO2 atmosphere. The cultures were expanded in tissue culture flasks at a 1:3 split ratio until a sufficient yield of cells was achieved.
Female athymic nude mice were supplied by Harlan (Indianapolis, Ind.). Mice were received at four to five weeks of age, 12-15 grams in weight, and were acclimated for seven days prior to handling. The mice were housed in microisolator cages and maintained under specific pathogen-free conditions. The mice were fed Tekland Global Diet™ 2920x irradiated laboratory animal diet (Harlan, Indianapolis, Ind.) and autoclaved water was freely available.
Sixty female mice were inoculated subcutaneously in the right flank with 0.1 ml of a 50% RPMI/50% Matrigel™ (BD Biosciences, Bedford, Mass.) mixture containing a suspension of A2780/CP tumor cells (approximately 1.0×10^7 cells/mouse).
Three days following inoculation, tumors were measured using calipers and tumor weight was calculated using the animal study management software. Thirty mice with tumor sizes of 80.4-170.6 mg were randomized into three groups often mice (Groups 1-3) by random equilibration. Body weights were recorded when the mice were randomized and were taken twice per week thereafter in conjunction with tumor measurements.
Animals were treated until the study endpoint. Group I received only vehicle (control). Group II was given doses of 1.8 mg/mL {[5-(3-fluorophenyl)-3-hydroxypyridine-2-carbonyl]-amino} acetic acid while Group III was given doses of 3.6 mg/mL {[5-(3-fluorophenyl)-3-hydroxypyridine-2-carbonyl]-amino} acetic acid. All doses were given via oral administration (PO). The administered volume of each dose was approximately 1 mL/100 g body weight of animal.
Tumor mass (mg) was determined using the formula:
where “a” is the largest diameter and “b” is the smallest diameter. Measurements were made using calipers. The mean tumor size when study began was 100-125 mg. On day one of the study, animals were randomly assigned to the three groups described above.
Tumors were collected from Groups 1-3 of the main study when individual tumors reached a tumor weight of ≧2000 mg by using the procedure above. Tumor size measurements and animal body weight were taken twice weekly.

## O=C(O)CNC(=O)c1ncc(-c2cccc(F)c2)cc1O [disclosed HIF-2α stabilizer, {[5-(3-Fluorophenyl)-3-hydroxypyridine-2-carbonyl]amino} acetic acid]
18 mg/kg QD PO, study day 1
  Mean Tumor Mass: 119.6 mg
  Median Tumor Mass: 121.3 mg
18 mg/kg QD PO, study day 4
  Mean Tumor Mass: 188.2 mg
  Median Tumor Mass: 191.0 mg
  No. Surviving Animals: 10
  Wgt % change: −0.31%
18 mg/kg QD PO, study day 8
  Mean Tumor Mass: 326.9 mg
  Median Tumor Mass: 243.8 mg
  No. Surviving Animals: 10
  Wgt % change: 4.40%
18 mg/kg QD PO, study day 11
  Mean Tumor Mass: 682.8 mg
  Median Tumor Mass: 528.0 mg
  No. Surviving Animals: 10
  Wgt % change: 6.02%
18 mg/kg QD PO, study day 16
  Mean Tumor Mass: 2508.0 mg
  Median Tumor Mass: 1826.2 mg
  No. Surviving Animals: 10
  Wgt % change: 16.40%
18 mg/kg QD PO, study day 19
  Mean Tumor Mass: 2647.4 mg
  Median Tumor Mass: 3030.1 mg
  No. Surviving Animals: 6
  Wgt % change: 16.82%
18 mg/kg QD PO, study day 22
  Mean Tumor Mass: 1761.6 mg
  Median Tumor Mass: 1761.6 mg
  No. Surviving Animals: 1
  Wgt % change: 19.43%
18 mg/kg QD PO, study day 25
  Mean Tumor Mass: 2838.3 mg
  Median Tumor Mass: 2838.3 mg
  No. Surviving Animals: 1
  Wgt % change: 19.43%
36 mg/kg QD PO, study day 1
  Mean Tumor Mass: 120.3 mg
  Median Tumor Mass: 123.3 mg
36 mg/kg QD PO, study day 4
  Mean Tumor Mass: 186.4 mg
  Median Tumor Mass: 182.8 mg
  No. Surviving Animals: 10
  Wgt % change: −0.41%
36 mg/kg QD PO, study day 8
  Mean Tumor Mass: 312.8 mg
  Median Tumor Mass: 323.4 mg
  No. Surviving Animals: 10
  Wgt % change: 4.04%
36 mg/kg QD PO, study day 11
  Mean Tumor Mass: 708.1 mg
  Median Tumor Mass: 830.4 mg
  No. Surviving Animals: 10
  Wgt % change: 5.48%
36 mg/kg QD PO, study day 16
  Mean Tumor Mass: 2354.5 mg
  Median Tumor Mass: 2441.8 mg
  No. Surviving Animals: 10
  Wgt % change: 15.86%
36 mg/kg QD PO, study day 19
  Mean Tumor Mass: 1858.8 mg
  Median Tumor Mass: 1568.0 mg
  No. Surviving Animals: 4
  Wgt % change: 12.79%
36 mg/kg QD PO, study day 22
  Mean Tumor Mass: 2456.9 mg
  Median Tumor Mass: 2384.6 mg
  No. Surviving Animals: 3
  Wgt % change: 8.50%
18 and 36 mg/kg QD PO vs control group, FIGS. 7 to 9, Table I
  rate of tumor mass growth: significantly reduced
